The record followed here is ChEMBL document CHEMBL1764981, “Coumarin-purine ribofuranoside conjugates as new agents against hepatitis C virus” (J Med Chem, 2011).

A short description of data set [1]: Solubility of compound in water by HPLC-UV method. It is filed as physicochemical.
A further data set relates to Huh-5-2. The data set is described as follows: Cytotoxicity against human Huh5-2 cells assessed as microscopically detectable alteration in cell morphology by cytostatic determination assay. It is filed as functional.
Data set [2] in a line: Selectivity index, ratio of CC50 for human Huh5-2 cells to EC50 for Hepatitis C virus. Format: toxicity, cell-based, Huh-5-2. Conditions: read-out: Ratio CC50/EC50.
In data set [3] the test system is Hepatitis C virus. Put plainly: Antiviral activity against Hepatitis C virus infected in human Huh5-2 cells assessed as […] by viral RNA (luciferase) assay. Format: functional, organism-based, Hepacivirus hominis. Conditions: Huh-5-2. In general terms: Damage to the host cells serves as the signal in cytopathic effect assays.

The test system of data set [4] is Hepatitis C virus. Put plainly: Antiviral activity against Hepatitis C virus. Format: functional, organism-based. Conditions: Hepacivirus hominis.

As usually defined, the solubility is how much of the substance goes into solution per volume. A word on the CC50: it is the concentration at which the toxic effect on the cells reaches its halfway point. The term EC50 denotes the concentration at which the effect is half-maximal.

Converted amounts (≈) assume the structure as drawn. The source made the active and inactive calls. The calls are words filed in the database; no cut-off is given here.

`COc1cccc2cc(CSc3nc4cncnc4[nH]3)c(=O)oc12`: in data set [1], the solubility worked out at 31.6 µg/mL (≈ 92.8 µM). Besides, the half-maximal cytotoxic concentration (CC50) with Huh-5-2 came to 94 µM. Moreover, the selectivity ratio in data set [2] worked out at 4.8.

As for `CC1(C)O[C@@H]2[C@H](O1)[C@H](n1c(SCc3cc4ccccc4oc3=O)nc3cncnc31)O[C@@H]2CO`, the CC50 in the data set on Huh-5-2 came to 8.8 µM. Also, in the data set with Hepatitis C virus [3], the EC50 was 2.8 µM. Moreover, the selectivity ratio in data set [2] worked out at 3.2.

Regarding `CC1(C)O[C@@H]2[C@H](O1)[C@H](n1c(SCc3cc4cc(Br)ccc4oc3=O)nc3cncnc31)O[C@@H]2CO`, the CC50 in the data set with Huh-5-2 was found to be 7.5 µM. Further, in the data set with Hepatitis C virus [3], the EC50 came to 2.1 µM. Also, the selectivity ratio in data set [2] was found to be 3.6.

Turning to `CC(=O)OC[C@H]1O[C@@H](n2c(SCc3cc4cc(Br)ccc4oc3=O)nc3cncnc32)[C@H](O)[C@@H]1O`, the CC50 in the data set with Huh-5-2 turned out to be 31 µM. In addition, the EC50 in the data set on Hepatitis C virus [3] stood at 8.3 µM. Also, the selectivity ratio in data set [2] is 3.8.

Take `CC(=O)OC[C@H]1O[C@@H](n2c(SCc3cc4cc(F)ccc4oc3=O)nc3cncnc32)[C@H](O)[C@@H]1O`: the CC50 in the data set with Huh-5-2 stood at 8.6 µM. For the same molecule, in the data set with Hepatitis C virus [3], the EC50 was 3.8 µM. The selectivity ratio in data set [2] turned out to be 2.3.

Regarding `Nc1ncnc2c1nc(SCc1cc3ccccc3oc1=O)n2[C@@H]1O[C@H](CO)[C@@H](O)[C@H]1O`, in the data set with Huh-5-2, the cytotoxic concentration (CC50) is 49 µM. Moreover, the EC50 in the data set on Hepatitis C virus [3] came to 28 µM. Besides, in data set [2], the selectivity ratio was found to be 1.7.

For `CC(=O)OC[C@H]1O[C@@H](n2c(SCc3cc4cc(Br)cc(Br)c4oc3=O)nc3cncnc32)[C@H](OC(C)=O)[C@@H]1OC(C)=O`, in the data set on Huh-5-2, the CC50 was 6 µM. In the data set on Hepatitis C virus [3], the EC50 was 4.9 µM. For the same molecule, in data set [2], the selectivity ratio is 1.2.

On to `O=c1oc2c(Br)cc(Br)cc2cc1CSc1nc2cncnc2n1[C@@H]1O[C@H](CO)[C@@H](O)[C@H]1O`, for which, in the data set on Huh-5-2, the CC50 was determined as 36 µM. Also, the EC50 in the data set with Hepatitis C virus [3] was 5.9 µM. The selectivity ratio in data set [2] was 6.1.

In the case of `CC(=O)OC[C@H]1O[C@@H](n2c(SCc3cc4cc(C)ccc4oc3=O)nc3cncnc32)[C@H](O)[C@@H]1O`, the CC50 in the data set on Huh-5-2 was found to be 16 µM. In the data set with Hepatitis C virus [3], the EC50 turned out to be 4.6 µM. Further, in data set [2], the selectivity ratio was 3.5.

For `CC(=O)OC[C@H]1O[C@@H](n2c(=S)[nH]c3cncnc32)[C@H](OC(C)=O)[C@@H]1OC(C)=O`, in the data set on Huh-5-2, the CC50 is over 122 µM. The outcome with Hepatitis C virus [4] was inactive. Besides, in the data set on Hepatitis C virus [3], the EC50 was over 122 µM.

Regarding `O=c1oc2ccc(Cl)cc2cc1CSc1nc2cncnc2n1[C@@H]1O[C@H](CO)[C@@H](O)[C@H]1O`, the CC50 in the data set with Huh-5-2 turned out to be 37 µM. Further, the EC50 with Hepatitis C virus [3] was found to be 4.3 µM. Moreover, in data set [2], the selectivity ratio stood at 8.5.

Consider `CC(=O)OC[C@H]1O[C@@H](n2c(SCc3cc4cc(Cl)ccc4oc3=O)nc3cncnc32)[C@H](OC(C)=O)[C@@H]1OC(C)=O`, for which the 50% cytotoxic concentration (CC50) with Huh-5-2 stood at 7.5 µM. In the data set with Hepatitis C virus [3], the concentration for a half-maximal effect (EC50) stood at 3.2 µM. Also, the selectivity ratio in data set [2] was 2.4.

On to `CC(=O)OC[C@H]1O[C@@H](n2c(SCc3cc4cc(Br)cc(Br)c4oc3=O)nc3cncnc32)[C@H](O)[C@@H]1O`, for which, in the data set with Huh-5-2, the CC50 is 7 µM. Besides, in the data set on Hepatitis C virus [3], the EC50 turned out to be 6.8 µM. In addition, the selectivity ratio in data set [2] amounted to 1.

Turning to `CC(=O)OC[C@H]1O[C@@H](n2c(SCc3cc4cc(Br)ccc4oc3=O)nc3cncnc32)[C@H](OC(C)=O)[C@@H]1OC(C)=O`, the CC50 with Huh-5-2 was 6.7 µM. Besides, the EC50 in the data set on Hepatitis C virus [3] was 4.9 µM. Further, in data set [2], the selectivity ratio was found to be 1.4.

Turning to `CC(=O)OC[C@H]1O[C@@H](n2c(SCc3cc4cc(C)ccc4oc3=O)nc3cncnc32)[C@H](OC(C)=O)[C@@H]1OC(C)=O`, in the data set on Huh-5-2, the CC50 came out at 16 µM. The EC50 in the data set with Hepatitis C virus [3] came to 7.7 µM. Moreover, the selectivity ratio in data set [2] was determined as 2.1.

With `CC(=O)OC[C@H]1O[C@@H](n2c(=S)n([C@@H]3O[C@H](COC(C)=O)[C@@H](OC(C)=O)[C@H]3OC(C)=O)c3ncncc32)[C@H](OC(C)=O)[C@@H]1OC(C)=O`, the CC50 in the data set with Huh-5-2 is over 75 µM. Moreover, the result with Hepatitis C virus [4] was inactive. In addition, the EC50 with Hepatitis C virus [3] worked out at 66 µM. Also, the selectivity ratio in data set [2] was over 1.1.

In the case of `CC(=O)OC[C@H]1O[C@@H](n2c(SCc3cc4ccccc4oc3=O)nc3cncnc32)[C@H](OC(C)=O)[C@@H]1OC(C)=O`, the CC50 with Huh-5-2 is 39 µM. For the same molecule, in the data set with Hepatitis C virus [3], the EC50 turned out to be 6.6 µM. Besides, the selectivity ratio in data set [2] came to 5.9.

Consider `CC(=O)OC[C@H]1O[C@@H](n2c(SCc3cc4cc(F)ccc4oc3=O)nc3cncnc32)[C@H](OC(C)=O)[C@@H]1OC(C)=O`, for which the cytotoxic concentration (CC50) in the data set with Huh-5-2 was determined as 7.6 µM. Further, the EC50 in the data set on Hepatitis C virus [3] stood at 6.1 µM. Moreover, the selectivity ratio in data set [2] is 1.2.

On to `OC[C@H]1O[C@@H](n2c(S)nc3cncnc32)[C@H](O)[C@@H]1O`, for which, in the data set with Huh-5-2, the CC50 is over 176 µM. Besides, the EC50 in the data set with Hepatitis C virus [3] is over 176 µM.

In data set [1], `COc1cccc2cc(CSc3nc4cncnc4n3[C@@H]3O[C@H](CO)[C@@H]4OC(C)(C)O[C@@H]43)c(=O)oc12` gave a solubility of 87.7 µg/mL (≈ 171 µM). Moreover, the CC50 in the data set with Huh-5-2 was found to be 8.4 µM. Also, the EC50 with Hepatitis C virus [3] was 1.6 µM. Besides, in data set [2], the selectivity ratio came out at 5.2.

`CC(=O)OC[C@H]1O[C@@H](n2c(SCc3cc4ccccc4oc3=O)nc3cncnc32)[C@H](O)[C@@H]1O`: in the data set with Huh-5-2, the CC50 is 8.7 µM. The EC50 with Hepatitis C virus [3] was over 8.9 µM. In data set [2], the selectivity ratio is under 0.98.

Turning to `Nc1ncnc2c1nc(SCc1cc3cc(Br)ccc3oc1=O)n2[C@@H]1O[C@H](CO)[C@@H](O)[C@H]1O`, the CC50 with Huh-5-2 turned out to be 41 µM. Also, in the data set with Hepatitis C virus [3], the EC50 amounted to 27 µM. The selectivity ratio in data set [2] came out at 1.5.

For the molecule `COc1cccc2cc(CSc3nc4cncnc4n3[C@@H]3O[C@H](CO)[C@@H](O)[C@H]3O)c(=O)oc12`, the solubility in data set [1] stood at 224 µg/mL (≈ 474 µM). In addition, the CC50 in the data set on Huh-5-2 is 47 µM. Besides, the EC50 in the data set with Hepatitis C virus [3] was found to be 9.5 µM. For the same molecule, the selectivity ratio in data set [2] stood at 5.

For the molecule `COc1cccc2cc(CSc3nc4c(N)ncnc4n3[C@@H]3O[C@H](CO)[C@@H](O)[C@H]3O)c(=O)oc12`, in the data set on Huh-5-2, the CC50 was over 103 µM. Also, in the data set with Hepatitis C virus [3], the EC50 came to 43 µM. Also, the selectivity ratio in data set [2] is over 2.4.

For the molecule `Nc1ncnc2c1nc(SCc1cc3cc(Br)cc(Br)c3oc1=O)n2[C@@H]1O[C@H](CO)[C@@H](O)[C@H]1O`, the CC50 in the data set with Huh-5-2 was found to be 36 µM. Besides, the concentration for a half-maximal effect (EC50) in the data set with Hepatitis C virus [3] amounted to 26 µM. For the same molecule, in data set [2], the selectivity ratio came to 1.4.

Turning to `Cc1ccc2oc(=O)c(CSc3nc4cncnc4n3[C@@H]3O[C@H](CO)[C@@H](O)[C@H]3O)cc2c1`, in the data set on Huh-5-2, the 50% cytotoxic concentration (CC50) came out at 46 µM. Also, the EC50 in the data set on Hepatitis C virus [3] was determined as 9.2 µM. Also, the selectivity ratio in data set [2] amounted to 5.1.

Consider `O=c1oc2ccc(F)cc2cc1CSc1nc2cncnc2n1[C@@H]1O[C@H](CO)[C@@H](O)[C@H]1O`, for which the CC50 in the data set on Huh-5-2 is 36 µM. The EC50 in the data set with Hepatitis C virus [3] amounted to 7.4 µM. Besides, in data set [2], the selectivity ratio is 4.9.

With `COc1cccc2cc(CSc3nc4cncnc4n3[C@@H]3O[C@H](COC(C)=O)[C@@H](O)[C@H]3O)c(=O)oc12`, the solubility in data set [1] was 216 µg/mL (≈ 421 µM). In addition, the cytotoxic concentration (CC50) in the data set on Huh-5-2 was 11 µM. Also, the EC50 in the data set with Hepatitis C virus [3] was determined as 5.8 µM. Also, the selectivity ratio in data set [2] turned out to be 1.9.

For `O=c1oc2ccccc2cc1CSc1nc2cncnc2n1[C@@H]1O[C@H](CO)[C@@H](O)[C@H]1O`, the CC50 in the data set on Huh-5-2 worked out at 50 µM. Also, the 50% effective concentration (EC50) with Hepatitis C virus [3] came to 5.5 µM. For the same molecule, the selectivity ratio in data set [2] came to 9.1.

In turn, `COc1cccc2cc(CSc3nc4cncnc4n3[C@@H]3O[C@H](COC(C)=O)[C@@H](OC(C)=O)[C@H]3OC(C)=O)c(=O)oc12` yielded a solubility in data set [1] of 78.3 µg/mL (≈ 131 µM). Further, the CC50 in the data set on Huh-5-2 was 7.5 µM. Moreover, the EC50 in the data set on Hepatitis C virus [3] turned out to be 2.3 µM. The selectivity ratio in data set [2] is 3.3.
